Ends that are not written are not given here.
Experiments:
G12V mutant KRAS = biological target: T1, G12V mutant KRAS (Homo sapiens, UniProt P01116, G12V); assay: In vitro translation assay with streptavidin pull-down of biotinylated pept-ins, Western blot for KRAS; assay type: binding; conditions: 10 μM biotinylated pept-in
T1 construct: made in house; host or cells: cell-free: PURExpress In Vitro Protein Synthesis Kit (New England Biolabs), linear T7 PCR template
Description: (§1) In vitro translation assays were performed using the PURExpress® In Vitro Protein Synthesis Kit (New England Biolabs) according to the manufacturer's instructions. Briefly, linear DNA fragments containing T7 promotor and terminator sequences flanking the KRAS coding sequence were generated using PCR and purified using the MinElute PCR Purification Kit (Qiagen). 250 ng of linear DNA was subsequently used for the in vitro translation reaction, which was performed for 2 hours at 37° C. with shaking (1000 rpm). Indicated biotinylated pept-ins were mixed in the translation reactions from a 5 mM stock solution in 6M Urea to a final concentration of 10 μM. Upon completion of the translation reaction, biotinylated pept-ins were captured from the reaction mix using Streptavidin coated beads (Pierce) during 90 min at room temperature. Beads were next washed with TBS containing 0.1% Tween 20 and bound proteins were finally boiled off in 1×SDS loading dye (Bio-Rad) in TBS buffer. Proteins were resolved using Any kD 15-well Mini-PROTEAN gels (Bio-Rad) during SDS-PAGE and probed for KRAS after Western blotting using a mouse monoclonal KRAS-specific antibody (SC-30, Santa Cruz Biotechnology), which was detected with an HRP-coupled anti-mouse secondary antibody using chemiluminescence on a Bio-Rad Chemidoc MP imaging instrument.
(§2) To mimic this in vitro, we devised an in vitro translation setup producing either wild-type or mutant (G12V, G12C, G12D or G13D) KRAS in the presence of biotinylated RAS-targeting pept-ins. This allowed us to perform a streptavidin pull-down to capture the biotinylated pept-ins from the translation reaction and perform SDS-PAGE and Western blotting to probe the pulled-down fraction for the presence of KRAS. The biotinylated version of pept-in 04-004-N001, i.e. 04-004-N011, which harbours an APR window sequence derived from a wild-type APR, is predicted to target all RAS proteins independently from their mutation status.

G12C mutant KRAS = biological target: T2, G12C mutant KRAS (Homo sapiens, UniProt P01116, G12C); assay: as above; assay type: binding; conditions: 10 μM biotinylated pept-in
T2 construct: made in house; host or cells: cell-free: PURExpress In Vitro Protein Synthesis Kit (New England Biolabs), linear T7 PCR template
Description: as §1, §2

[1] = Single-dose viability screen on adherently growing (2D) NCI-H441 cells (CellTiter Blue); assay type: cell-based, human; conditions: 25 μM single dose, adherent NCI-H441, compared to vehicle (30 mM Urea); read-out: decrease in viability after 4 days of exposure
Description: For the single-dose viability screen on adherent cells, 4000 cells were seeded per well in black μclear® Cellstar® F-bottom 96-well plates (Greiner) in 100 μL full growth medium. The day after seeding, growth medium was replaced with full growth medium containing the indicated pept-in at a fixed final dose of 25 μM. Technical duplicates were included for all experimental pept-in conditions. 2 and 4 days after treatment viability was assessed using the CellTiter Blue reagent (Promega) according to the manufacturer's instructions, with the following adaptation: CellTiter Blue reagent was diluted 1 in 2 in PBS. Readout was performed on a Clariostar plate reader (BMG). Dose-response assays were performed with the following adaptations: pept-ins were tested in dose-response using a 1 in 2 dilution series with 50 μM being the highest final concentration used. Furthermore, a single viability read-out was performed 3 days after treatment using the Celltiter Glo reagent (Promega) according to the manufacturer's instructions, with the following adaptation: CellTiter Glo reagent was diluted 1 in 4 in PBS.
To assess pept-in activity on the viability of RAS-mutant tumor cells, we used adherent NCI-H441 lung adenocarcinoma cells which harbor a G12V mutation in KRAS. To verify that this cell line was indeed dependent on KRAS for its growth, we used SAH-SOS-1A as a positive control. SAH-SOS-1A is a peptidic compound whose design is based on a stabilized helix from son of sevenless 1, the canonical guanine exchange factor for KRAS (Leshchiner et al. Proc Natl Acad Sci U S A. 2015, vol. 112(6), 1761-6).
Pept-ins were screened at a single dose of 25 μM (corresponds to final concentration of 30 mM Urea) and viability was measured after 2 and 4 days of exposure using the CellTiter Blue reagent. […] Hit rates and potencies for the other templates tested were considerably lower. […] One of these pept-ins (04-004-N001) harbours an APR window sequence derived from another APR of RAS, that is thus present in both G12 mutant and wild-type RAS, while the other four pept-ins (04-006-N001, 04-014-N001, 04-015-N001 and 04-033-N001) harbour an APR window sequence that is derived from and contains a G12V mutant site.

SW620 tumor = assay: In vivo SW620 xenograft model of human KRAS G12V colorectal cancer; set-up: species or system mouse; conditions: for average tumor volume at day 22, 20 μg dosing group / average tumor volume at day 22, 200 μg dosing group: intratumoral injection three times per week
Description: Female NCr nu/nu mice (8 to 12 weeks) were inoculated with 1×10^6 SW620 tumor cells in 50% Matrigel subcutaneously in the hind flank. The cell Injection Volume was 0.1 mL/mouse. When tumors reached an average size of 100-150 mm^3 a pair match was performed, and treatment started. Group sizes were N=6 for the non-treated group, N=5 for the vehicle groups and N=8 for the pept-in and positive control groups. Tumor growth was monitored by caliper measurement twice per week. Model response was monitored by Irinotecan dosed once per week at 100 mg/kg intraperitoneally for 3 weeks.
To assess whether the RAS-targeting pept-ins are able to attenuate growth of KRAS G12V-driven tumors in vivo, a subcutaneous xenograft model of human KRAS G12V colorectal cancer (SW620) was used. Once the tumors reached 100-150mm^3 in size, pept-ins were administered directly into the tumor mass by intratumoral injection three times per week during two weeks at two different doses (20 μg and 200μg).

[2] = system: RASless MEFs expressing KRAS G12V; assay: Spheroid efficacy on RASless MEF panel; assay type: cell-based, mouse; conditions: spheroids, 5 days of exposure
Description: (§3) For the single-dose viability screen on spheroid cultures, 1000 cells were seeded per well in black Ultra-Low Attachment (ULA) round-bottom 96-well plates (Corning) in 75 μL full growth medium. The day after seeding, spheroids were treated by addition of 50 µl of full growth medium containing the indicated test compounds so that the final concentration after adding was 25 μM. Technical duplicates were included for all experimental pept-in conditions 5 days after treatment viability was assessed using the CellTiter Glo 3D reagent (Promega) according to the manufacturer's instructions, with the following adaptation: 80 μL of reagent was added per well. Readout was performed on a Clariostar plate reader (BMG). For dose-response assays using RASless MEFs, cells were seeded at 1000 (G12V and G12C) or 2000 (wild-type and BRAF V600E) in Matrigel-containing medium, in order to obtain equally viable spheroids at start of treatment, 24 hrs later. […]
RAS mutant-selectivity on cellular efficacy was assessed using the isogenic RASless mouse embryonic fibroblast (MEF) panel. […] The panel assessed included the common clinical KRAS variants expressed as transgene (WT, G12V and G12C) and an additional cell line dependent on the expression of BRAF V600E for proliferation.
Efficacy of RAS-targeting pept-ins on MEFs growing as spheroids was assessed after 5 days of exposure. […]

[3] = system: NCI-H441 cells growing as suspension spheroid cultures; assay: Single-dose viability screen on NCI-H441 suspension spheroid cultures (3D, CellTiter Glo 3D); assay type: cell-based, human; conditions: 25 μM single dose, 5 days
Description: as §3, with “(BMG).” for “(BMG). For dose-response assays using RASless MEFs, cells were seeded at 1000 (G12V and G12C) or 2000 (wild-type and BRAF V600E) in Matrigel-containing medium, in order to obtain equally viable spheroids at start of treatment, 24 hrs later.”
As previous reports have shown that adherent growth of KRAS mutant cells lines might attenuate their sensitivity to KRAS inhibition or knockdown (Fujita-Sato et al. Cancer Res. 2015, vol. 75, 2851-62; Patricelli et al. Cancer Discov. 2016, vol. 6, 316-29; Vartanian et al. J Biol Chem. 2013, vol. 288, 2403-13), we complemented the screen on adherently growing NCI-H441 cells with a screen on suspension spheroid cultures of the same cell line. […] Viability of the spheroid cultures was determined after 5 days of exposure using the CellTiter Glo 3D reagent from Promega. […]

| Compound | pull-down of G12V mutant KRAS (G12V mutant KRAS) | cytotoxicity [1] [%] | further results |
| --- | --- | --- | --- |
| 04-006-N007: biotinylated version of a biologically active pept-in harbouring an APR window containing the G12V mutant site (KVVVGAVKGSKVVVGAVK; also: biotinylated, site not given here) | notable pull-down was only observed for the G12V mutant KRAS |  |  |
| 04-015-N026: biotinylated version of a biologically active pept-in harbouring an APR window containing the G12V mutant site (KVVVGAVGKGSKVVVGAVGK; also: biotinylated, site not given here) | notable pull-down |  | pull-down of G12C mutant KRAS (G12C mutant KRAS): notable pull-down |
| 04-033-N003: biotinylated version of a biologically active pept-in harbouring an APR window containing the G12V mutant site (KVVVGAVGVGKGSKVVVGAVGVGK; also: biotinylated, site not given here) | notable pull-down was only observed for the G12V mutant KRAS |  |  |
| CC(=O)N[C@@H](CCCCN)C(=O)N[C@H](C(=O)N[C@H](C(=O)N[C@H](C(=O)NCC(=O)N[C@@H](C)C(=O)N[C@H](C(=O)NCC(=O)N[C@@H](CCCCN)C(=O)NCC(=O)N[C@@H](CO)C(=O)N[C@@H](CCCCN)C(=O)N[C@H](C(=O)N[C@H](C(=O)N[C@H](C(=O)NCC(=O)N[C@@H](C)C(=O)N[C@H](C(=O)NCC(=O)N[C@@H](CCCCN)C(N)=O)C(C)C)C(C)C)C(C)C)C(C)C)C(C)C)C(C)C)C(C)C)C(C)C [04-015-N001] |  | ≥ 75 | average tumor volume at day 22, 20 μg dosing group (SW620 tumor): significant reduction in average tumor volume; average tumor volume at day 22, 200 μg dosing group (SW620 tumor): significant reduction in average tumor volume; reduction in tumor growth (comparison between pept-ins) (SW620 tumor; intratumoral injection, 20 μg and 200 μg): strongest reduction in tumor growth |
| Ac-KLSVFAIKGSKLSVFAIK-NH2 [04-004-N001] |  | ≥ 75 | efficacy on MEFs expressing KRAS G12V [2]: notable increased efficacy; average tumor volume at day 22, 20 μg dosing group (SW620 tumor): only significant for the 200 μg dosing group; average tumor volume at day 22, 200 μg dosing group (SW620 tumor): significant |
| Ac-KLVVVGAVKGSKLVVVGAVK-NH2 [04-014-N001] |  | ≥ 75 | activity in the spheroid setting [3]: did not display activity |
| Ac-KVVVGAVGVGKGSKVVVGAVGVGK-NH2 [04-033-N001] |  | ≥ 75 |  |
| Ac-KVVVGAVKGSKVVVGAVK-NH2 [04-006-N001] |  | ≥ 75 |  |
